# Publication PMC4022186 (Biochemistry, 2012)
# Assays:
# [1] = molecular target: T1, E. coli QueD (CPH4 synthase) (Escherichia coli, UniProt P65870); test: preparative conversion to [[…]-2H]-CPH4; format: biochemical; settings: 5 mM sepiapterin, 15 μM QueD, 20 mM PIPES, 99.9% D2O, 20 h
# [2] = molecular target: T1, E. coli QueD (CPH4 synthase); test: preparative conversion to [7R-D]-CPH4; format: biochemical; settings: 5 μM QueD, 20 mM PIPES pH 7.4, 10 mM DTT, 18 h, H2O
# T1 sequence (P65870 whole entry): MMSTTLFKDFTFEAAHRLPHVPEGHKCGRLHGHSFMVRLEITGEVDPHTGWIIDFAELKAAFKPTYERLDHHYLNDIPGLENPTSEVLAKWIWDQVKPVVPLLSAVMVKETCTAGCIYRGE
Structure (SMILES),preparative conversion to [6-2H]-CPH4; FT-ICR MS of product [1],preparative conversion to [7R-D]-CPH4; FT-ICR MS of product [2]
C[C@H](O)C(=O)C1=Nc2c(nc(N)[nH]c2=O)NC1 [sepiapterin],this reaction was used to prepare CPH4 containing deuterium at C-6,–
Nc1nc2c(c(=O)[nH]1)N=C([C@H](O)[C@H](O)COP(=O)(O)OP(=O)(O)OP(=O)(O)O)CN2 [H2NTP],–,The resulting H2NTP was converted to CPH4 in a reaction mixture
